# Experiments:
# Plasmopara viticola = assay type: in vivo; settings: 200 ppm; grape vine leaf disks; preventative, inoculated 1 day after application; assessed 6-8 days after application
# Phytophthora infestans = assay type: in vivo; settings: 200 ppm; tomato leaf disks; preventative, inoculated 1 day after application; assessed 5-7 days after application
# [1] = system: Blumeria graminis f. sp. tritici (Erysiphe graminis f. sp. tritici); assay: Blumeria graminis f. sp. tritici/wheat/leaf disc preventative (powdery mildew on wheat); assay type: in vivo; settings: 200 ppm, wheat leaf segments cv. Kanzler, inoculated 1 day after application, assessed 6-8 days after application
# Protocol: Example B4: Blumeria graminis f. Sp. Tritici (Erysiphe graminis f. Sp. Tritici)/Wheat/Leaf Disc Preventative (Powdery Mildew on Wheat)
# Wheat leaf segments cv. Kanzler are placed on agar in a multiwell plate (24-well format) and sprayed with the formulated test compound diluted in water. The leaf disks are inoculated by shaking powdery mildew infected plants above the test plates 1 day after application. The inoculated leaf disks are incubated at 20° C. and 60% rh under a light regime of 24 h darkness followed by 12 h light/12 h darkness in a climate chamber and the activity of a compound is assessed as percent disease control compared to untreated when an appropriate level of disease damage appears on untreated check leaf segments (6-8 days after application).
# [2] = system: Mycosphaerella arachidis (Cercospora arachidicola); assay: Mycosphaerella arachidis (Cercospora arachidicola)/liquid culture (early leaf spot), inhibition of growth; assay type: cell-based; settings: liquid culture, PDB, 24° C., 4-5 days after application, read-out: control of Mycosphaerella arachidis (inhibition of growth vs untreated)
# Protocol: Example B9: Mycosphaerella arachidis (Cercospora arachidicola)/Liquid Culture (Early Leaf Spot)
# (§1) Conidia of the fungus from cryogenic storage are directly mixed into nutrient broth (PDB potato dextrose broth). After placing a (DMSO) solution of test compound into a microtiter plate (96-well format), the nutrient broth containing the fungal spores is added. The test plates are incubated at 24° C. and the inhibition of growth is determined photometrically 4-5 days after application.
# Fusarium culmorum = assay: microbe, parasite or virus in culture; assay type: cell-based; settings: read-out: control of Fusarium culmorum (inhibition of growth vs untreated)
# [3] = system: Monographella nivalis (Microdochium nivale); assay: Monographella nivalis (Microdochium nivale)/liquid culture (foot rot cereals), inhibition of growth; assay type: cell-based; settings: liquid culture, PDB, 24° C., 4-5 days after application, read-out: control of Monographella nivalis (inhibition of growth vs untreated)
# Protocol: Example B8: Monographella nivalis (Microdochium nivale)/Liquid Culture (Foot Rot Cereals)
# as §1
# [4] = system: Phaeosphaeria nodorum (Septoria nodorum); assay: Phaeosphaeria nodorum (Septoria nodorum)/wheat/leaf disc preventative (glume blotch); assay type: in vivo; settings: 200 ppm, wheat leaf segments cv. Kanzler, inoculated 2 days after application, assessed 5-7 days after application
# Protocol: Example B7: Phaeosphaeria nodorum (Septoria nodorum)/Wheat/Leaf Disc Preventative (Glume Blotch)
# Wheat leaf segments cv. Kanzler are placed on agar in a multiwell plate (24-well format) and sprayed with the formulated test compound diluted in water. The leaf disks are inoculated with a spore suspension of the fungus 2 days after application. The inoculated test leaf disks are incubated at 20° C. and 75% rh under a light regime of 12 h light/12 h darkness in a climate cabinet and the activity of a compound is assessed as percent disease control compared to untreated when an appropriate level of disease damage appears in untreated check leaf disks (5-7 days after application).
# [5] = system: Glomerella lagenarium (Colletotrichum lagenarium); assay: Glomerella lagenarium (Colletotrichum lagenarium)/liquid culture (anthracnose), inhibition of growth; assay type: cell-based; settings: Colletotrichum orbiculare, liquid culture, PDB, 24° C., 3-4 days after application, read-out: control of Glomerella lagenarium (inhibition of growth vs untreated)
# Protocol: Example B3: Glomerella lagenarium (Colletotrichum lagenarium)/Liquid Culture (Anthracnose)
# Conidia of the fungus from cryogenic storage are directly mixed into nutrient broth (PDB potato dextrose broth). After placing a (DMSO) solution of test compound into a microtiter plate (96-well format), the nutrient broth containing the fungal spores is added. The test plates are incubated at 24° C. and the inhibition of growth is measured photometrically 3-4 days after application.
# [6] = system: Gibberella zeae (Fusarium graminearum); assay type: in vivo; settings: 200 ppm; wheat spikelets cv. Monsun; preventative, inoculated 1 day after application; assessed 6-8 days after application
# [7] = system: Botryotinia fuckeliana (Botrytis cinerea); assay: Botryotinia fuckeliana (Botrytis cinerea)/liquid culture (gray mould), inhibition of growth; assay type: cell-based; settings: liquid culture, Vogels broth, 24° C., 3-4 days after application, read-out: control of Botryotinia fuckeliana (inhibition of growth vs untreated)
# Protocol: Example B2: Botryotinia fuckeliana (Botrytis cinerea)/Liquid Culture (Gray Mould)
# Conidia of the fungus from cryogenic storage are directly mixed into nutrient broth (Vogels broth). After placing a (DMSO) solution of test compound into a microtiter plate (96-well format), the nutrient broth containing the fungal spores is added. The test plates are incubated at 24° C. and the inhibition of growth is determined photometrically 3-4 days after application.
# Pyrenophora teres = assay: Pyrenophora teres/barley/leaf disc preventative (net blotch); assay type: in vivo; settings: 200 ppm, barley leaf segments cv. Hasso, inoculated 2 days after application, assessed 5-7 days after application
# Protocol: Example B10: Pyrenophora teres/Barley/Leaf Disc Preventative (Net Blotch)
# Barley leaf segments cv. Hasso are placed on agar in a multiwell plate (24-well format) and sprayed with the formulated test compound diluted in water. The leaf segments are inoculated with a spore suspension of the fungus 2 days after application. The inoculated leaf segments are incubated at 20° C. and 65% rh under a light regime of 12 h light/12 h darkness in a climate cabinet and the activity of a compound is assessed as disease control compared to untreated when an appropriate level of disease damage appears in untreated check leaf segments (5-7 days after application).
# Alternaria solani = assay: Alternaria solani/tomato/leaf disc (early blight); assay type: in vivo; settings: 200 ppm; tomato leaf disks cv. Baby; inoculated 2 days after application; assessed 5-7 days after application
# Protocol: Example B1: Alternaria solani/Tomato/Leaf Disc (Early Blight)
# Tomato leaf disks cv. Baby are placed on agar in multiwell plates (24-well format) and sprayed with the formulated test compound diluted in water. The leaf disks are inoculated with a spore suspension of the fungus 2 days after application. The inoculated leaf disks are incubated at 23° C./21° C. (day/night) and 80% rh under a light regime of 12/12 h (light/dark) in a climate cabinet and the activity of a compound is assessed as percent disease control compared to untreated when an appropriate level of disease damage appears on untreated check disk leaf disks (5-7 days after application).
# [8] = system: Mycosphaerella graminicola (Septoria tritici); assay: Mycosphaerella graminicola (Septoria tritici)/liquid culture (Septoria blotch), inhibition of growth; assay type: cell-based; settings: Zymoseptoria tritici, liquid culture, PDB, 24° C., 4-5 days after application, read-out: control of Mycosphaerella graminicola (inhibition of growth vs untreated)
# Protocol: Example B12: Mycosphaerella graminicola (Septoria tritici)/Liquid Culture (Septoria Blotch)
# as §1
SMILES,control of Plasmopara viticola (percent disease control compared to untreated) (Plasmopara viticola),control of Phytophthora infestans (percent disease control compared to untreated) (Phytophthora infestans),control of Blumeria graminis f. sp. tritici (percent disease control compared to untreated) [1],inhibition of growth at 20 ppm [2] [%],inhibition of growth at 20 ppm (Fusarium culmorum) [%],inhibition of growth at 20 ppm [3] [%],control of Phaeosphaeria nodorum (percent disease control compared to untreated) [4],inhibition of growth at 20 ppm [5] [%],control of Gibberella zeae (percent disease control compared to untreated) [6],inhibition of growth at 20 ppm [7] [%],control of Pyrenophora teres (disease control compared to untreated) (Pyrenophora teres),control of Alternaria solani (percent disease control compared to untreated) (Alternaria solani),inhibition of growth at 20 ppm [8] [%]
"Cn1cc(C(C)(CNC(=O)c2cnn(-c3ccc(F)cc3F)n2)c2cccc(C#N)n2)cn1 (centres unmarked) [Compound P-2, N-[2-(6-cyano-2-pyridyl)-2-(1-methylpyrazol-4-yl)propyl]-2-(2,4-difluorophenyl)triazole-4-carboxamide]",at least 80%,at least 80%,at least 80%,–,–,–,–,–,–,–,–,–,–
"Cn1cc(C(C)(CNC(=O)c2cn(-c3ncc(F)cc3F)nn2)c2cccc(Cl)n2)cn1 (centres unmarked) [Compound P-7, N-[2-(6-chloro-2-pyridyl)-2-(1-methylpyrazol-4-yl)propyl]-1-(3,5-difluoro-2-pyridyl)triazole-4-carboxamide]",–,–,at least 80%,≥ 80,≥ 80,≥ 80,at least 80%,≥ 80,at least 80%,≥ 80,at least 80%,at least 80%,≥ 80
